{"source": "patent US12077503B2", "about": "“Substituted cyclic amides and their use as herbicides” (FMC CORPORATION, priority 2015, dated 2024)", "assay_type_in_all_cases": "in vivo", "key": {"[1]": {"tested_on": "ryegrass, Italian (Italian ryegrass, Lolium multiflorum)", "assay": "Test A preemergence", "conditions": "Lolium multiflorum, pre-emergence, 240 h, Preemergence", "how_it_was_run": "(§1)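 Preemergence directed soil spray on seeded pots, or postemergence application to plants 2–10 cm, one- to two-leaf. Solvent mixture non-phytotoxic, with surfactant. Scored ~10 d later, visually, 0–100 vs untreated.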"}, "[2]": {"tested_on": "barnyardgrass (Echinochloa crus-galli)", "assay": "Test A preemergence", "conditions": "Echinochloa crus-galli, pre-emergence, 240 h, Preemergence", "how_it_was_run": "as §1"}, "[3]": {"tested_on": "ragweed (common ragweed, Ambrosia elatior)", "assay": "Test A preemergence", "conditions": "Ambrosia artemisiifolia, pre-emergence, 240 h, Preemergence", "how_it_was_run": "as §1"}, "Kochia (Kochia scoparia) [4]": {"tested_on": "Kochia (Kochia scoparia)", "assay": "Test A preemergence", "conditions": "Bassia scoparia, pre-emergence, 240 h, Preemergence", "how_it_was_run": "as §1"}, "[5]": {"tested_on": "giant foxtail (Setaria faberii)", "assay": "Test A preemergence", "conditions": "Setaria faberi, pre-emergence, 240 h, Preemergence", "how_it_was_run": "as §1"}, "[6]": {"tested_on": "pigweed (Amaranthus retroflexus)", "assay": "Test A preemergence", "conditions": "Amaranthus retroflexus, pre-emergence, 240 h, Preemergence"}, "[7]": {"tested_on": "blackgrass (Alopecurus myosuroides)", "assay": "Test A postemergence", "conditions": "Alopecurus myosuroides, post-emergence, 240 h, Postemergence, read-out: Blackgrass plant response rating (0 to 100 scale)", "how_it_was_run": "as §1"}, "[8]": {"tested_on": "wheat (Triticum aestivum)", "assay": "Test A postemergence", "conditions": "Triticum aestivum, post-emergence, 240 h, Postemergence, read-out: Wheat plant response rating (0 to 100 scale)", "how_it_was_run": "as §1"}, "[9]": {"tested_on": "ryegrass, Italian (Italian ryegrass, Lolium multiflorum)", "assay": "Test A postemergence", "conditions": "Lolium multiflorum, post-emergence, 240 h, Postemergence, read-out: Ryegrass, Italian plant response rating (0 to 100 scale)", "how_it_was_run": "as §1"}, "[10]": {"tested_on": "barnyardgrass (Echinochloa crus-galli)", "assay": "Test A postemergence", "conditions": "Echinochloa crus-galli, post-emergence, 240 h, Postemergence", "how_it_was_run": "as §1"}, "[11]": {"tested_on": "ragweed (common ragweed, Ambrosia elatior)", "assay": "Test A postemergence", "conditions": "Ambrosia artemisiifolia, post-emergence, 240 h, Postemergence, read-out: Ragweed plant response rating (0 to 100 scale)", "how_it_was_run": "as §1"}, "Kochia (Kochia scoparia) [12]": {"tested_on": "Kochia (Kochia scoparia)", "assay": "Test A postemergence", "conditions": "Bassia scoparia, post-emergence, 240 h, Postemergence, read-out: Kochia plant response rating (0 to 100 scale)", "how_it_was_run": "as §1"}, "[13]": {"tested_on": "giant foxtail (Setaria faberii)", "assay": "Test A postemergence", "conditions": "Setaria faberi, post-emergence, 240 h, Postemergence, read-out: Foxtail, Giant plant response rating (0 to 100 scale)", "how_it_was_run": "as §1"}, "corn (Zea mays)": {"tested_on": "corn (Zea mays)", "assay": "Test A postemergence", "conditions": "Zea mays, post-emergence, 240 h, Postemergence, read-out: Corn plant response rating (0 to 100 scale)", "how_it_was_run": "as §1"}, "[14]": {"tested_on": "pigweed (Amaranthus retroflexus)", "assay": "Test A postemergence", "conditions": "Amaranthus retroflexus, post-emergence, 240 h, Postemergence, read-out: Pigweed plant response rating (0 to 100 scale)", "how_it_was_run": "as §1"}, "[15]": {"tested_on": "sedge, umbrella (small-flower umbrella sedge, Cyperus difformis)", "assay": "Test B flooded paddy test", "conditions": "Cyperus difformis, 360 h, Flood, 250 g ai/ha; visually evaluated after 13 to 15 d; read-out: Plant response rating, Sedge, Umbrella (0 to 100 scale where 0 is no effect and 100 is complete control)", "how_it_was_run": "(§2)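 Plants at 2-leaf stage flooded to 3 cm above soil, with compounds applied directly to paddy water and that depth maintained. Plants kept in greenhouse 13–15 d. Visual rating versus controls on a 0 (no effect) to 100 (complete control) scale.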"}, "[16]": {"tested_on": "barnyardgrass (Echinochloa crus-galli)", "assay": "Test B flooded paddy test", "conditions": "Echinochloa crus-galli, 360 h, Flood, 250 g ai/ha; visually evaluated after 13 to 15 d; read-out: Plant response rating, Barnyardgrass (0 to 100 scale where 0 is no effect and 100 is complete control)", "how_it_was_run": "as §2"}, "rice (Oryra sativa)": {"tested_on": "rice (Oryra sativa)", "assay": "Test B flooded paddy test", "conditions": "Oryza sativa, 360 h, Flood, 250 g ai/ha; visually evaluated after 13 to 15 d; read-out: Plant response rating, Rice (0 to 100 scale where 0 is no effect and 100 is complete control)", "how_it_was_run": "as §2"}, "[17]": {"tested_on": "ducksalad (Heteranthera limosa)", "assay": "Test B flooded paddy test", "conditions": "Heteranthera limosa, 360 h, Flood, 250 g ai/ha; visually evaluated after 13 to 15 d; read-out: Plant response rating, Ducksalad (0 to 100 scale where 0 is no effect and 100 is complete control)", "how_it_was_run": "as §2"}, "[18]": {"conditions": "125 g ai/ha, visual rating about 10 d after treatment"}, "[19]": {"conditions": "31 g ai/ha, 0 is no effect, 100 is complete control"}}, "data": [{"smiles": "Cc1ccncc1NC(=O)[C@H]1C(=O)N(C)C[C@@H]1c1ccc2c(c1)OC(F)(F)O2", "note": "[Compound 1351]", "values": [{"measurement": "pest or weed control at 31 g/ha", "setting": "[1]; 31 g ai/ha, 0 to 100 scale where 0 is no effect and 100 is complete control, read-out: Ryegrass, Italian plant response rating", "result": 0, "unit": "%"}, {"measurement": "pest or weed control at 125 g/ha", "setting": "[1]; 125 g ai/ha, 0 to 100 scale (0 no effect, 100 complete control), read-out: Plant response rating, Ryegrass, Italian", "result": 0, "unit": "%"}, {"measurement": "pest or weed control at 31 g/ha", "setting": "[2]; 31 g ai/ha, 0 to 100 scale where 0 is no effect and 100 is complete control, read-out: Barnyardgrass plant response rating", "result": 0, "unit": "%"}, {"measurement": "pest or weed control at 125 g/ha", "setting": "[2]; 125 g ai/ha, 0 to 100 scale (0 no effect, 100 complete control), read-out: Plant response rating, Barnyardgrass", "result": 0, "unit": "%"}, {"measurement": "pest or weed control at 31 g/ha", "setting": "[3]; 31 g ai/ha, 0 to 100 scale where 0 is no effect and 100 is complete control, read-out: Ragweed plant response rating", "result": 0, "unit": "%"}, {"measurement": "pest or weed control at 125 g/ha", "setting": "[3]; 125 g ai/ha, 0 to 100 scale (0 no effect, 100 complete control), read-out: Plant response rating, Ragweed", "result": 0, "unit": "%"}, {"measurement": "pest or weed control at 31 g/ha", "setting": "Kochia (Kochia scoparia) [4]; 31 g ai/ha, 0 to 100 scale where 0 is no effect and 100 is complete control, read-out: Kochia plant response rating", "result": 0, "unit": "%"}, {"measurement": "pest or weed control at 125 g/ha", "setting": "Kochia (Kochia scoparia) [4]; 125 g ai/ha, 0 to 100 scale (0 no effect, 100 complete control), read-out: Plant response rating, Kochia", "result": 0, "unit": "%"}, {"measurement": "pest or weed control at 31 g/ha", "setting": "[5]; 31 g ai/ha, 0 to 100 scale where 0 is no effect and 100 is complete control, read-out: Foxtail, Giant plant response rating", "result": 0, "unit": "%"}, {"measurement": "pest or weed control at 125 g/ha", "setting": "[5]; 125 g ai/ha, 0 to 100 scale (0 no effect, 100 complete control), read-out: Plant response rating, Foxtail, Giant", "result": 0, "unit": "%"}, {"measurement": "pest or weed control at 31 g/ha", "setting": "[6]; 31 g ai/ha, 0 to 100 scale where 0 is no effect and 100 is complete control, read-out: Pigweed plant response rating", "result": 0, "unit": "%"}, {"measurement": "pest or weed control at 125 g/ha", "setting": "[6]; 125 g ai/ha, 0 to 100 scale (0 no effect, 100 complete control), read-out: Plant response rating, Pigweed", "result": 0, "unit": "%"}, {"measurement": "pest or weed control at 125 g/ha", "setting": "[7]; [18]", "result": 0, "unit": "%"}, {"measurement": "pest or weed control at 31 g/ha", "setting": "[7]; [19]", "result": 0, "unit": "%"}, {"measurement": "plant injury at 125 g/ha", "setting": "[8]; [18]", "result": 0, "unit": "%"}, {"measurement": "plant injury at 31 g/ha", "setting": "[8]; [19]", "result": 0, "unit": "%"}, {"measurement": "pest or weed control at 125 g/ha", "setting": "[9]; [18]", "result": 0, "unit": "%"}, {"measurement": "pest or weed control at 31 g/ha", "setting": "[9]; [19]", "result": 0, "unit": "%"}, {"measurement": "pest or weed control at 125 g/ha", "setting": "[10]; 125 g ai/ha, visual rating about 10 d after treatment, read-out: Barnyardgrass plant response rating (0 to 100 scale, 0 no effect, 100 complete control)", "result": 0, "unit": "%"}, {"measurement": "pest or weed control at 31 g/ha", "setting": "[10]; 31 g ai/ha, 0 is no effect, 100 is complete control, read-out: Barnyardgrass plant response rating (0 to 100 scale)", "result": 0, "unit": "%"}, {"measurement": "pest or weed control at 125 g/ha", "setting": "[11]; [18]", "result": 0, "unit": "%"}, {"measurement": "pest or weed control at 31 g/ha", "setting": "[11]; [19]", "result": 0, "unit": "%"}, {"measurement": "pest or weed control at 125 g/ha", "setting": "Kochia (Kochia scoparia) [12]; [18]", "result": 0, "unit": "%"}, {"measurement": "pest or weed control at 31 g/ha", "setting": "Kochia (Kochia scoparia) [12]; [19]", "result": 0, "unit": "%"}, {"measurement": "pest or weed control at 125 g/ha", "setting": "[13]; [18]", "result": 0, "unit": "%"}, {"measurement": "pest or weed control at 31 g/ha", "setting": "[13]; [19]", "result": 0, "unit": "%"}, {"measurement": "plant injury at 125 g/ha", "setting": "corn (Zea mays); [18]", "result": 0, "unit": "%"}, {"measurement": "plant injury at 31 g/ha", "setting": "corn (Zea mays); [19]", "result": 0, "unit": "%"}, {"measurement": "pest or weed control at 125 g/ha", "setting": "[14]; [18]", "result": 0, "unit": "%"}, {"measurement": "pest or weed control at 31 g/ha", "setting": "[14]; [19]", "result": 0, "unit": "%"}, {"measurement": "pest or weed control at 250 g/ha", "setting": "[15]", "result": 0, "unit": "%"}, {"measurement": "pest or weed control at 250 g/ha", "setting": "[16]", "result": 0, "unit": "%"}, {"measurement": "pest or weed control at 250 g/ha", "setting": "rice (Oryra sativa)", "result": 0, "unit": "%"}, {"measurement": "pest or weed control at 250 g/ha", "setting": "[17]", "result": 40, "unit": "%"}]}]}
